The numbers were not newly measured in US20210145841A1, “ENHANCEMENT OF DELIVERY OF LIPOPHILIC ACTIVE AGENTS ACROSS THE BLOOD-BRAIN BARRIER AND METHODS FOR TREATING CENTRAL NERVOUS SYSTEM DISORDERS” (POVIVA CORP., priority 2018, published 2021), which cites them from elsewhere.

For this series the following is noted: in vivo.

Turning to `CC1=CC[C@H]2C[C@@H]1C2(C)C` [α-Pinene, (1S,5S)-2,6,6-Trimethylbicyclo[3.1.1]hept-2-ene], the human pulmonary uptake was 60%.
